Source: ChEMBL document CHEMBL1201862, “PubChem BioAssay data set” (2004)
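48-hour exposure; five concentrations; linearly interpolated endpoints. GI50: concentration for 50% inhibition of growth.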 Active and inactive are the calls of the source. Cut-off read from the data, not from the text of the source: active = GI50 up to about 1.1 µM and inactive = higher.

Key:
Assay in all cases: NCI-60 cell line screen, 48 h
RXF 393 = tested on: RXF 393
NCI-H23 = tested on: NCI-H23
SF-268 = tested on: SF-268
UACC-257 = tested on: UACC-257
SK-OV-3 = tested on: SK-OV-3
HCT-15 = tested on: HCT-15
DU-145 = tested on: DU-145
A549 = tested on: A549
SK-MEL-28 = tested on: SK-MEL-28
NCI/ADR-RES = tested on: NCI/ADR-RES
Malme-3M = tested on: Malme-3M
HT-29 = tested on: HT-29
BT-549 = tested on: BT-549
786-0 = tested on: 786-0
RPMI-8226 = tested on: RPMI-8226
MCF7 = tested on: MCF7
OVCAR-8 = tested on: OVCAR-8
HCT-116 = tested on: HCT-116
NCI-H226 = tested on: NCI-H226
SR = tested on: SR

Structure (SMILES) | GI50 (RXF 393) | GI50 (NCI-H23) | GI50 (SF-268) | GI50 (UACC-257) | GI50 (SK-OV-3) | GI50 (HCT-15) | GI50 (DU-145) | GI50 (A549) | GI50 (SK-MEL-28) | GI50 (NCI/ADR-RES) | GI50 (Malme-3M) | GI50 (HT-29) | GI50 (BT-549) | GI50 (786-0) | GI50 (RPMI-8226) | GI50 (MCF7) | GI50 (OVCAR-8) | GI50 (HCT-116) | GI50 (NCI-H226) | GI50 (SR)
CCOC(=O)C1=C(C)NC(C)=C(C(=O)OCC)C1c1ccc(Cl)cc1 | 14.1 µM (inactive) | 14.4 µM (inactive) | 17.5 µM (inactive) | 13.4 µM (inactive) | 16.7 µM (inactive) | 16.6 µM | 17.3 µM (inactive) | 15.4 µM (inactive) | 20.4 µM (inactive) | 17.7 µM (inactive) | 18.1 µM (inactive) | 10.9 µM (inactive) | 17.1 µM (inactive) | 13 µM (inactive) | 9.48 µM (inactive) | 17.1 µM (inactive) | 16.1 µM (inactive) | 9.14 µM (inactive) | – | –
CN(C)CCOc1ccc(-c2c(Oc3ccccc3)c(=O)oc3ccccc23)cc1 | 3.08 µM (inactive) | 14.1 µM (inactive) | 12.8 µM (inactive) | 6.67 µM (inactive) | – | 10.3 µM | 13.8 µM (inactive) | 4.15 µM (inactive) | 12.4 µM (inactive) | 11.2 µM (inactive) | 12.2 µM (inactive) | 12.5 µM (inactive) | 13.6 µM (inactive) | 8.39 µM (inactive) | 14.1 µM (inactive) | 4.66 µM (inactive) | 15.6 µM (inactive) | 4.83 µM (inactive) | 16 µM (inactive) | 2.83 µM (inactive)
c1ccc2c(c1)CCN(C1=NCCO1)C2 | > 10 µM (inactive) | > 10 µM (inactive) | > 10 µM (inactive) | > 10 µM (inactive) | > 10 µM (inactive) | > 10 µM | > 10 µM (inactive) | > 10 µM (inactive) | > 10 µM (inactive) | > 10 µM (inactive) | > 10 µM (inactive) | > 10 µM (inactive) | > 10 µM (inactive) | > 10 µM (inactive) | > 10 µM (inactive) | > 10 µM (inactive) | > 10 µM (inactive) | > 10 µM (inactive) | > 10 µM (inactive) | –
COc1ccc(/C=N/n2c(Cc3ccccc3)n[nH]c2=O)cc1 | – | 94.8 µM (inactive) | 42.3 µM (inactive) | > 100 µM (inactive) | > 100 µM (inactive) | > 100 µM | > 100 µM (inactive) | > 100 µM (inactive) | > 100 µM (inactive) | > 100 µM (inactive) | > 100 µM (inactive) | > 100 µM (inactive) | 29.1 µM (inactive) | > 100 µM (inactive) | > 100 µM (inactive) | > 100 µM (inactive) | > 100 µM (inactive) | > 100 µM (inactive) | > 100 µM (inactive) | –
CCN(CC)N1C(=O)[N-][N+](CC)(CC)C1=O | – | > 100 µM (inactive) | > 100 µM (inactive) | – | > 100 µM (inactive) | > 100 µM | > 100 µM (inactive) | > 100 µM (inactive) | > 100 µM (inactive) | > 100 µM (inactive) | > 100 µM (inactive) | > 100 µM (inactive) | > 100 µM (inactive) | > 100 µM (inactive) | > 100 µM (inactive) | > 100 µM (inactive) | > 100 µM (inactive) | > 100 µM (inactive) | > 100 µM (inactive) | > 100 µM (inactive)
Oc1c(-c2ccccc2)sc2ccccc12 | 14.7 µM (inactive) | 20.4 µM (inactive) | 60.7 µM (inactive) | 25.2 µM (inactive) | – | 31.9 µM | 18.8 µM (inactive) | 31.9 µM (inactive) | 68.9 µM (inactive) | 34 µM (inactive) | 22.1 µM (inactive) | 31.3 µM (inactive) | 28.1 µM (inactive) | 22.4 µM (inactive) | 8.63 µM (inactive) | 33.3 µM (inactive) | 31.6 µM (inactive) | 18.7 µM (inactive) | 16.4 µM (inactive) | 7.5 µM (inactive)
Nc1c(Cl)ncnc1NCC1(CO)CCC1 | – | > 100 µM (inactive) | > 100 µM (inactive) | 63.4 µM (inactive) | – | > 100 µM | > 100 µM (inactive) | > 100 µM (inactive) | > 100 µM (inactive) | > 100 µM (inactive) | > 100 µM (inactive) | > 100 µM (inactive) | > 100 µM (inactive) | > 100 µM (inactive) | > 100 µM (inactive) | > 100 µM (inactive) | > 100 µM (inactive) | > 100 µM (inactive) | > 100 µM (inactive) | > 100 µM (inactive)
